# Laboratory results taken from PMC4418665, “Cyclization of the Urokinase Receptor-Derived Ser-Arg-Ser-Arg-Tyr Peptide Generates a Potent Inhibitor of Trans-Endothelial Migration of Monocytes” (PLoS ONE, 2015).
# Peptide text beside a SMILES is read from it.
# Test system: THP-1 cells crossing HUVEC monolayer
# Experiment: Trans-endothelial migration assay, xCELLigence RTCA
# Type: cell-based, human
# Details: 10 nM peptide, 10% FBS, monitored 10 hours, Cell Index, quadruplicate
# Text: Diapedesis of leukocytes plays a key role in the pathogenesis of inflammatory diseases and migration of monocytes from the blood into the sub-endothelial space is one of the earliest events. We investigated the effects of [SRSRY] on the number and morphology of THP-1 seeded to an endothelial monolayer. […] (Fig 5A). To examine the changes in morphology in more detail and quantify monocytes interacting with endothelial monolayer, we performed a subset of experiments using GFP-tagged THP-1, labeling co-cultures for F-actin and recording images by a confocal microscope. […] To further ascertain if [SRSRY] reduces trans-endothelial migration of monocytes, the ability of THP-1 cells to cross an endothelial monolayer was analyzed using the xCELLigence RTCA technology as previously described. […] At this time, reduction of impedance values, due to invading cells that interrupt monolayers was monitored in real-time for 10 hours. […]
# Fig 5 [SRSRY] prevents trans-endothelial migration of THP-1 cells. […] Representative images of co-cultures analyzed by phase contrast microscopy at 100x with Scale bar: 50 μm (A) or stained with rhodamine- phalloidin and recorded by a confocal microscope (z-series with 0.25 μm intervals) at 630x with Scale bar: 10 μm (B). […] Fluorescent THP-1 cells which were adherent on the endothelial monolayer were counted on 10 fields/slide at 200x magnification. […]
structure (smiles),measurement,value
"N=C(N)NCCC[C@@H]1NC(=O)[C@H](CO)NC(=O)[C@H](Cc2ccc(O)cc2)NC(=O)[C@H](CCCNC(=N)N)NC(=O)[C@H](CO)NC1=O [[SRSRY], [Ser-Arg-Ser-Arg-Tyr]] (cyclo(RSRYS))",reduction of THP-1 trans-endothelial migration,35%
